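Values below derive from 48-hour exposures of cells grown in 96-well plates, with endpoints linearly interpolated between the two concentrations bracketing the appropriate inhibition level. At the GI50, growth is halved.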 Calls of active or inactive are those of the source. Cut-off read from the data, not from the text of the source: active = GI50 up to about 1.1 µM and inactive = higher.
Assays:
Assay in all cases: inhibition of tumour cell growth, NCI panel, 48 h
A549 = tested on: A549
ACHN = tested on: ACHN
DMS-273 = tested on: DMS-273
EKVX = tested on: EKVX
HCT-116 = tested on: HCT-116
HT-29 = tested on: HT-29
IGROV-1 = tested on: IGROV-1
NCI-H226 = tested on: NCI-H226
NCI-H522 = tested on: NCI-H522
OVCAR-3 = tested on: OVCAR-3
RXF 393 = tested on: RXF 393
SF-295 = tested on: SF-295
SN12C = tested on: SN12C
SR = tested on: SR
TK-10 = tested on: TK-10
U-251 = tested on: U-251
UO-31 = tested on: UO-31
DU-145 = tested on: DU-145
MDA-MB-231 = tested on: MDA-MB-231
PC-3 = tested on: PC-3

SMILES | GI50 (A549) | GI50 (ACHN) | GI50 (DMS-273) | GI50 (EKVX) | GI50 (HCT-116) | GI50 (HT-29) | GI50 (IGROV-1) | GI50 (NCI-H226) | GI50 (NCI-H522) | GI50 (OVCAR-3) | GI50 (RXF 393) | GI50 (SF-295) | GI50 (SN12C) | GI50 (SR) | GI50 (TK-10) | GI50 (U-251) | GI50 (UO-31) | GI50 (DU-145) | GI50 (MDA-MB-231) | GI50 (PC-3)
CC(=O)OCC1OC(OC2CC3C(C)(C)C(O)CC[C@]3(C)C3CCC45CC4(CC[C@H]5C(C)CC(O)C4OC4(C)C)[C@]23C)C(O)C(O)C1O (stereo partly specified) | 10.6 µM (inactive) | 8.63 µM (inactive) | 8 µM (inactive) | 8.61 µM (inactive) | 9.14 µM (inactive) | 8.38 µM (inactive) | 0.966 µM (active) | 8.95 µM (inactive) | 4.89 µM (inactive) | 6.17 µM (inactive) | 4.2 µM (inactive) | 8.24 µM (inactive) | 8.24 µM (inactive) | 1.47 µM (inactive) | 8.73 µM (inactive) | 3.89 µM (inactive) | 8.51 µM (inactive) | – | – | –
COc1ccc(C(=O)C=C2NCCN2)cc1 | > 100 µM (inactive) | > 100 µM (inactive) | > 100 µM (inactive) | > 100 µM (inactive) | > 100 µM (inactive) | > 100 µM (inactive) | > 100 µM (inactive) | > 100 µM (inactive) | > 100 µM (inactive) | > 100 µM (inactive) | > 100 µM (inactive) | > 100 µM (inactive) | > 100 µM (inactive) | > 100 µM (inactive) | > 100 µM (inactive) | > 100 µM (inactive) | > 100 µM (inactive) | – | – | –
Cc1ccc(NC(=O)NC(=O)c2ccc([N+](=O)[O-])cc2[N+](=O)[O-])cc1Oc1ncc(Cl)cn1 | 0.542 µM (active) | 1.33 µM (inactive) | 0.318 µM (active) | > 10 µM (inactive) | 0.333 µM (active) | 0.3 µM (active) | 1.13 µM (inactive) | 0.449 µM (active) | 0.195 µM (active) | 0.355 µM (active) | 0.175 µM (active) | 0.406 µM (active) | 0.578 µM (active) | 0.409 µM (active) | 14.4 µM (inactive) | 0.208 µM (active) | 0.735 µM (active) | 0.731 µM (active) | 0.614 µM (active) | 0.117 µM (active)
CCOC(=O)C(Cc1ccccc1)NC(=O)c1nc[nH]c1/N=N/N(C)C (stereo unspecified) | > 100 µM (inactive) | > 100 µM (inactive) | > 100 µM (inactive) | > 100 µM (inactive) | > 100 µM (inactive) | > 100 µM (inactive) | > 100 µM (inactive) | > 100 µM (inactive) | > 100 µM (inactive) | > 100 µM (inactive) | – | > 100 µM (inactive) | > 100 µM (inactive) | > 100 µM (inactive) | > 10 µM (inactive) | > 100 µM (inactive) | > 100 µM (inactive) | – | – | –
CCCCCCCCCCCc1cc(=O)c2c(O)cccc2o1 | 61.8 µM (inactive) | > 100 µM (inactive) | 56.6 µM (inactive) | 56.1 µM (inactive) | 41.9 µM (inactive) | 53.7 µM (inactive) | > 100 µM (inactive) | 37.8 µM (inactive) | 71.1 µM (inactive) | > 100 µM (inactive) | 70.6 µM (inactive) | 87.5 µM (inactive) | > 100 µM (inactive) | 26.1 µM (inactive) | > 100 µM (inactive) | 95.7 µM (inactive) | > 100 µM (inactive) | – | – | –
N#CC1(N2CCCC2)CCC2(CC1)OCCO2 | > 100 µM (inactive) | > 100 µM (inactive) | > 10 µM (inactive) | > 100 µM (inactive) | > 100 µM (inactive) | > 100 µM (inactive) | > 100 µM (inactive) | > 100 µM (inactive) | > 100 µM (inactive) | > 100 µM (inactive) | > 100 µM (inactive) | > 100 µM (inactive) | > 100 µM (inactive) | > 100 µM (inactive) | > 100 µM (inactive) | > 100 µM (inactive) | > 100 µM (inactive) | – | – | –
C=CCOC(C)n1c(C)c(Br)c(=O)[nH]c1=O (stereo unspecified) | > 100 µM (inactive) | > 100 µM (inactive) | > 100 µM (inactive) | > 100 µM (inactive) | > 100 µM (inactive) | > 100 µM (inactive) | > 100 µM (inactive) | > 100 µM (inactive) | > 100 µM (inactive) | > 100 µM (inactive) | > 100 µM (inactive) | > 100 µM (inactive) | > 100 µM (inactive) | > 100 µM (inactive) | > 100 µM (inactive) | > 100 µM (inactive) | > 100 µM (inactive) | – | – | –

— ChEMBL document CHEMBL1201862, “PubChem BioAssay data set” (2004)
